# In patent US20250025451A1, “TREATMENT OF CANCER WITH KDM4 INHIBITORS” (Celgene Corporation, priority 2021, published 2025):
# System: 301 cancer cell lines from different tumor types
# Experiment: 2D cell viability inhibition assay, broad cancer cell line panel (OncoPanel; CellTiter-Glo)
# Type: cell-based
# Set-up: key to Emax: % of DMSO control (minimum response over dose range); AUC: scale not given here
# Settings: for AUC / Emax: 168 hours; for Emax: in % (unit assumed)
# Procedure: In a larger screening study, compound 1 was evaluated across a broad cancer cell line panel (OncoPanel; HD Biosciences) composed of 301 cancer cell lines from different tumor types.
# 2D cell viability inhibition assays were performed in multiwell plates seeded with cells from the panel. After seeding, the plates were cultured overnight in a humidified incubator at 37° C. to promote adherence. Assays were initiated in individual wells by adding either DMSO as a vehicle control, growth media as a blank, or serially diluted compound 1 (10 μM to 0.0005 μM with 1:3 serial dilution). Cultures were incubated for 168 hours after which the number of viable cells in each test well was assessed using the CellTiter-Glo® Luminescent Cell Viability Assay. Luminescence readouts were performed using an EnVision® Multilabel Reader and the compound 1 readouts were normalized to the DMSO control readouts, expressed as a percent of the control. Outliers were flagged out by visual inspection. Percent of control was plotted against the corresponding compound 1 concentration and the absolute IC50 value was determined using four-parameter logistic non-linear regression as the concentration where inhibition was 50% of the control. […] Emax was recorded as the minimum in y with the compound dose range. […] The sensitive/moderate/resistant calls for each cell line was determined by visually inspecting the resulting clustering dendrogram. All the analyses were done in R Core Team.
# [1] = NCIH596 (lung, mixed adenosquamous carcinoma)
# [2] = NCIH1395 (lung, adenocarcinoma)
# [3] = NCIH1435 (lung, non-small cell carcinoma)
# [4] = NCIH1563 (lung, adenocarcinoma)
# [5] = NCIH1573 (lung, adenocarcinoma)
# [6] = NCIH1650 (lung, bronchioloalveolar adenocarcinoma)
# [7] = NCIH1755 (lung, adenocarcinoma)
# [8] = NCIH1838 (lung, non-small cell carcinoma)
# [9] = NCIH2009 (lung, adenocarcinoma)
# [10] = NMCG1 (central nervous system, NS)
# [11] = ONS76 (central nervous system, NS)
# [12] = SCC9 (upper aerodigestive tract, squamous cell carcinoma)
# [13] = SCC15 (upper aerodigestive tract, squamous cell carcinoma)
# [14] = SCC25 (upper aerodigestive tract, squamous cell carcinoma)
# [15] = SNUC1 (large intestine, adenocarcinoma)
# [16] = SW579 (thyroid, anaplastic carcinoma)
# [17] = SW579, 168 h, SW579 (thyroid, anaplastic carcinoma)
# [18] = SW837 (large intestine, adenocarcinoma)
# [19] = SW1271 (lung, small cell carcinoma)
# [20] = SW1271, 168 h, SW1271 (lung, small cell carcinoma)
# [21] = SW1417 (large intestine, adenocarcinoma)
# [22] = T24 (urinary tract, transitional cell carcinoma)
# [23] = TE1 (oesophagus, squamous cell carcinoma)
# [24] = TE8 (oesophagus, squamous cell carcinoma)
# [25] = TE15 (oesophagus, squamous cell carcinoma)
# [26] = UACC812 (breast, ductal carcinoma)
# [27] = VCAP (prostate, adenocarcinoma)
smiles,measurement,setting,value
"CC(C)c1ccc(N(C)c2ccc3c(c2)OCC[C@H]3CNc2cnccc2C(=O)O)cc1 [Compound 1, 3-({[(4R)-7-{methyl[4-(propan-2-yl)phenyl]amino}-3,4-dihydro-2H-1-benzopyran-4-yl]methyl}amino)pyridine-4-carboxylic acid]",AUC,"NCIH441 (lung, adenocarcinoma)",0.7804
same,Emax,"NCIH441 (lung, adenocarcinoma)",67.49
same,AUC,[1],0.8151
same,Emax,[1],61.34
same,AUC,[2],0.8542
same,Emax,[2],70.68
same,AUC,[3],0.7612
same,Emax,[3],60.04
same,AUC,[4],0.9652
same,Emax,[4],93.507
same,AUC,[5],0.7482
same,Emax,[5],53.57
same,AUC,[6],0.8746
same,Emax,[6],68.07
same,AUC,[7],1.29
same,Emax,[7],123.3293
same,AUC,[8],0.7858
same,Emax,[8],60.0585
same,AUC,[9],0.7914
same,Emax,[9],55.69
same,AUC,"NIHOVCAR3 (ovary, NS)",0.7771
same,Emax,"NIHOVCAR3 (ovary, NS)",59.47
same,AUC,[10],0.7013
same,Emax,[10],47.06
same,AUC,[11],0.7336
same,Emax,[11],54.63
same,AUC,"RPMI7951 (skin, NS)",0.8067
same,Emax,"RPMI7951 (skin, NS)",66.31
same,AUC,"SAOS2 (bone, NS)",1.081
same,Emax,"SAOS2 (bone, NS)",92.52
same,AUC,[12],0.9424
same,Emax,[12],69.25
same,AUC,[13],0.9489
same,Emax,[13],90.39
same,AUC,[14],0.7789
same,Emax,[14],62.3079
same,AUC,"SKHEP1 (liver, adenocarcinoma)",0.7091
same,Emax,"SKHEP1 (liver, adenocarcinoma)",44.3029
same,AUC,"SKMEL24 (skin, NS)",0.7882
same,Emax,"SKMEL24 (skin, NS)",58.12
same,AUC,"SKMEL31 (skin, NS)",0.7393
same,Emax,"SKMEL31 (skin, NS)",59.49
same,AUC,"SKNSH (autonomic ganglia, NS)",0.7295
same,Emax,"SKNSH (autonomic ganglia, NS)",53.89
same,AUC,"SKOV3 (ovary, adenocarcinoma)",0.9901
same,Emax,"SKOV3 (ovary, adenocarcinoma)",96.03
same,AUC,[15],0.7478
same,Emax,[15],55.45
same,AUC,[16],0.9203
same,Emax,[16],79.98
same,EC50,[17],≥ 10 µM
same,IC50,[17],≥ 10 µM
same,AUC,[18],0.7109
same,Emax,[18],46.73
same,AUC,[19],0.8179
same,Emax,[19],65.38
same,EC50,[20],≥ 10 µM
same,IC50,[20],≥ 10 µM
same,AUC,[21],0.9634
same,Emax,[21],91.96
same,AUC,[22],0.9289
same,Emax,[22],75.74
same,AUC,[23],0.938
same,Emax,[23],84.54
same,AUC,[24],0.816
same,Emax,[24],72.1307
same,AUC,[25],1.084
same,Emax,[25],89.04
same,AUC,[26],0.8418
same,Emax,[26],62.67
same,AUC,[27],0.7822
same,Emax,[27],62.6
